Test results published in US20260137698A1, “CYCLIN-DEPENDENT KINASE 7 INHIBITORS” (JOINT STOCK COMPANY «BIOCAD», priority 2022, published 2026).
Like-named read-outs stand apart in the source and are kept apart here.

How the values were obtained:
Type in all cases: in vivo, CD-1 mice
[1] = Pharmacokinetics in mice plasma following intravenous administration; conditions: male, CD-1, mouse; for half-life: read-out: T½ (converted); for Vd: read-out: Vss
Procedure: (§1) Pharmacokinetic studies of the compounds were carried out on CD-1 mice, males, aged about 8 weeks, weighing 16-29 g. The animals were given a single oral (PO) administration (intragastrically) at a dose of 10 mg/kg in a formulation in the form of a 0.2% solution of hydroxypropyl methylcellulose (HPMC) in a 5% aqueous solution of glucose and a single IV-bolus administration (intravenously) at a dose of 1.0 mg/kg for 1277 and at a dose of 2.0 mg/kg for substances CDK7_1187, CDK7_1225, CDK7_1229 and CDK7_1276 in a formulation comprising 0.2% DMSO in 5% aqueous solution of glucose.
(§2) For each substance, 21-30 animals were used for each dose of PO and IV administration. All mice were weighed and randomized before dosing.
(§3) 3-5 animals were used for each time point. Each animal was sampled at one time point. At least 12 h before the start of the experiment, the animals were deprived of food while maintaining free access to water.
(§4) Animals from the PO and IV groups were subjected to blood sampling before administering the substance and after 0.5, 2, 4, 8, 12 and 24 h.
(§5) Blood was collected by cardiac puncture using the closed method. Blood was collected in a volume of 0.2 ml into polypropylene tubes comprising 20 μl of 5% EDTA. Blood plasma was separated by centrifugation at 10000 rpm for 10 minutes at 4±2° C. and transferred into clean labeled tubes.
(§6) Test blood plasma samples of mice from the experimental groups were obtained in a volume of 50 μl. Afterwards, […] of a solution of internal standard (tolbutamide (Sigma, T0891)) prepared in acetonitrile, at a concentration of 50 ng/ml, pre-cooled in the refrigerator at 2-8° C., was added to the samples, stirred in a vortex mixer (G560E, Scientific Industries) for 10 seconds and incubated at 4° C. for 15 minutes for protein precipitation. Samples were then centrifuged (5417R centrifuge, Eppendorf) at 1500 g for 10 minutes while cooling to 4° C. 150 μl of the supernatant were transferred to a 96-well plate for HPLC-MS/MS analysis. Quantitative determination of test compounds in blood plasma was carried out by absolute calibration method. The calibration curve was generated by analyzing plasma samples with supplementations of known amounts of the standard of the compound being determined. The lower limit of the quantitative determination of test compounds in blood plasma was 1 ng/ml, the analytical range of the technique was 1 ng/ml to 2000 ng/ml. The technique was partially validated in terms of selectivity, accuracy, precision, linearity, matrix effects, stability.
(§7) The Qtrap 5500 mass spectrometer (AB Sciex) in combination with the Agilent 1290 Infinity II HPLC liquid chromatograph (Agilent) and a cooling multisampler (Agilent 1290 Infinity II Multisampler G7167B) was used as an HPLC-MS/MS system. Chromatographic analysis was performed on a C18 reversed-phase HPLC column (YMC-Triart C18, 50*2 mm, 1.9 μm, YMC CO. Ltd). The mobile phase used was used a mixture of deionized water and acetonitrile supplemented with 0.1% formic acid in gradient mode, flow rate: 0.5 ml/min, column T=40° C., autosampler T=8° C., analysis time: 2.8 min. Mass spectrometric detection was performed in multiple reaction monitoring (MRM) mode. Precursor ions, fragment ions and collision energies for each substance were selected experimentally. Two Q1/Q3 transitions were used to record MRM chromatograms of the analyte and internal standard; one of transitions was used for quantitative calculations, the other one was used to confirm that the […] corresponds to a given substance. Based on the results of HPLC-MS/MS analysis of calibration samples using the Analyst 1.6.3 software, the calibration dependence of areas of chromatographic analyte peaks normalized to the signal of the internal standard on the concentration of the analyte was built.
(§8) Pharmacokinetic analysis was performed by non-compartmental method using the Phoenix WinNonlin 6.3 software package. […]

[2] = Pharmacokinetics in mice plasma following oral administration; conditions: dose 10 mg/kg; for F: absolute bioavailability, mice; for AUC(0-t) / Cmax / Tmax / half-life: male, CD-1, mouse, mice plasma; for half-life: read-out: T½ (converted)
Procedure: as §1, §2, §3, §4, §5, §6, §7, §8

[3] = Blood-brain barrier permeability: PK in mice brain homogenate following oral administration; conditions: male, CD-1, mouse, dose 10 mg/kg; for Kp: brain homogenate / plasma, mice, read-out: AUCbrain/AUCplasma; for AUC(0-t) / Cmax / Tmax / half-life: mice brain homogenate; for half-life: read-out: t½ (converted)
Procedure: The ability of substances to penetrate the blood-brain barrier and enter the central nervous system (mouse brain) was evaluated by the ratio of their areas under pharmacokinetic curves in […] and blood plasma following oral administration, characterizing tissue bioavailability to the […], and expressed as the AUCbrain/AUCplasma coefficient.
Pharmacokinetic studies of the compounds were carried out on CD-1 mice, males, aged about 8 weeks, weighing 16-29 g. Animals were subjected a single oral (PO) administration (intragastrically) at a dose of 10 mg/kg in a formulation in the form of a 0.2% solution of hydroxypropyl methylcellulose (HPMC) in a 5% aqueous solution of glucose.
21 animals were used for each substance. All mice were weighed and randomized before dosing.
3 animals were used for each time point. Biomaterials were collected from each animal at one time point. At least 12 h before the start of the experiment, the animals were deprived of food while maintaining free access to water. Blood and brain samples were collected 0.5, 2, 4, 6, 8, 12 and 16 h after administration of the substance.
All manipulations were carried out analogously to Example 54.
Perfusion of mice brains was carried out with saline solution via the vascular system. To this end, the chest was opened, the right atrium was incised with microsurgical scissors, and saline cooled to 4° C. was administered using a 10-ml syringe into the left ventricle until the liver turned white. After washing, the skull was opened and the brain removed, it was weighed and transferred to labeled 5 ml tubes.
A 4-fold volume of water was added to the brain suspension and homogenized using a homogenizer (Omni Bead Ruptor 24) 2 times for 45 seconds. Analogously, the intact mice brain homogenate was prepared, which was then used to prepare calibration samples and QC samples. The calibration curve was generated by analyzing brain homogenate samples with supplementations of known amounts of the standard of the compound being determined.
Samples were precipitated with cooled acetonitrile at 1:4 ratio, containing the internal standard tolbutamide (Sigma, T0891) at a concentration of 50 ng/ml. Samples were stirred on a vortex mixer (G560E, Scientific Industries) for 10 seconds and kept at 4° C. for 15 minutes to precipitate proteins, then centrifuged (5417R centrifuge, Eppendorf) for 10 minutes at 1500 g. […] of supernatants were collected and transferred to corresponding wells of a 96-well plate for HPLC-MS/MS analysis. Quantitative determination of test compounds in brain homogenates was carried out analogously to the procedure described in Example 54. Lower limit of quantitative determination of test compounds in brain homogenate was 0.3 ng/ml.
Pharmacokinetic analysis of data was performed analogously to the procedure described in Example 54.
In addition to main PK parameters, the ratio of concentration in the brain and plasma at the studied time points (AUCbrain/AUCplasma) was calculated to assess bioavailability in the brain (permeability through the blood-brain barrier).

| AUC(0-t) ([1]; dose 2 mg/kg) | clearance ([1]; dose 2 mg/kg) | half-life ([1]; dose 2 mg/kg) | Vd ([1]; dose 2 mg/kg) | F [2] | AUC(0-t) [2] | Cmax [2] | Tmax [2] | half-life [2] | Structure (SMILES) | Kp [3] | AUC(0-t) [3] | Cmax [3] | Tmax [3] | half-life [3] | AUC(0-t) ([1]; dose 1 mg/kg) | clearance ([1]; dose 1 mg/kg) | half-life ([1]; dose 1 mg/kg) | Vd ([1]; dose 1 mg/kg) |
| --- | --- | --- | --- | --- | --- | --- | --- | --- | --- | --- | --- | --- | --- | --- | --- | --- | --- | --- |
| 691 ng·h/mL | 48 mL/min/kg | 1.8 h | 6.3 L/kg | 102% | 3540 ng·h/mL | 712 ng/mL | 2 h | 1.9 h | CC1(C)CC[C@H](Nc2ncc(C(F)(F)F)c(-c3c[nH]c4c3CCCN(C3CC3)C4=O)n2)CN1 [CDK7_1225, 7-cyclopropyl-3-(2-{[(3S)-6,6-dimethylpiperidin-3-yl]amino}-5-(trifluoromethyl)py-rimidin-4-yl)-1H,4H,5H,6H,7H, 8H-pyrrolo[2,3-c]azepin-8-one] | 0.165 | 855 ng·h/mL | 93.8 ng/mL | 6 h | 2.33 h |  |  |  |  |
| 1140 ng·h/mL | 29 mL/min/kg | 2 h | 4.17 L/kg | 102% | 5790 ng·h/mL | 1070 ng/mL | 0.5 h | 2.5 h | CC(C)N1CCCc2c(-c3nc(N[C@H]4CCC(C)(C)NC4)ncc3C(F)(F)F)c[nH]c2C1=O [CDK7_1229, 3-(2-{[(3S)-6,6-dimethylpiperidin-3-yl]amino}-5-(trifluoromethyl)py-rimidin-4-yl)-7-(propan-2-yl)-1H,4H,5H,6H,7H, 8H-pyrrolo[2,3-c]azepin-8-one] | 0.182 | 909 ng·h/mL | 136 ng/mL | 0.5 h | 2.25 h |  |  |  |  |
| 314 ng·h/mL | 103 mL/min/kg | 1.7 h | 10.1 L/kg | 72.7% | 1160 ng·h/mL | 309 ng/mL | 0.5 h | 1.7 h | CN1CCCc2c(-c3nc(N[C@H]4CCC(C)(C)NC4)ncc3C(F)(F)F)c[nH]c2C1=O [CDK7_1187, 3-(2-{[(3S)-6,6-dimethylpiperidin-3-yl]amino}-5-(trifluoromethyl)py-rimidin-4-yl)-7-methyl-1H,4H,5H,6H,7H, 8H-pyrrolo[2,3-c]azepin-8-one] |  |  |  |  |  |  |  |  |  |

| Structure (SMILES) | AUC(0-t) ([1]; dose 2 mg/kg) | clearance ([1]; dose 2 mg/kg) | half-life ([1]; dose 2 mg/kg) | Vd ([1]; dose 2 mg/kg) | F [2] | AUC(0-t) [2] | Cmax [2] | Tmax [2] | half-life [2] | Kp [3] | AUC(0-t) [3] | Cmax [3] | Tmax [3] | half-life [3] | AUC(0-t) ([1]; dose 1 mg/kg) | clearance ([1]; dose 1 mg/kg) | half-life ([1]; dose 1 mg/kg) | Vd ([1]; dose 1 mg/kg) |
| --- | --- | --- | --- | --- | --- | --- | --- | --- | --- | --- | --- | --- | --- | --- | --- | --- | --- | --- |
| O=C1c2[nH]cc(-c3nc(N[C@H]4CCC5(CC5)NC4)ncc3C(F)(F)F)c2CCCN1C1CC1 [CDK7_1276, 3-(2-{[(6S)-4-azaspiro[2.5]octan-6-yl]amino}-5-(trifluoromethyl)py-rimidin-4-yl)-7-cyclopropyl-1H,4H,5H,6H,7H, 8H-pyrrolo[2,3-c]azepin-8-one] | 1380 ng·h/mL | 21.5 mL/min/kg | 4.15 h | 6.52 L/kg | 116% | 7980 ng·h/mL | 1510 ng/mL | 0.5 h | 2 h | 0.243 | 1940 ng·h/mL | 335 ng/mL | 0.5 h | 1.99 h |  |  |  |  |
| CC(C)N1CCCc2c(-c3nc(N[C@H]4CCC5(CC5)NC4)ncc3C(F)(F)F)c[nH]c2C1=O [CDK7_1277, 3-(2-{[(6S)-4-azaspiro[2.5]octan-6-yl]amino}-5-(trifluoromethyl)py-rimidin-4-yl)-7-(propan-2-yl)-1H,4H,5H,6H,7H, 8H-pyrrolo[2,3-c]azepin-8-one] |  |  |  |  | 85.8% | 3110 ng·h/mL | 893 ng/mL | 0.5 h | 3.8 h | 0.302 | 1750 ng·h/mL | 226 ng/mL | 2 h | 2.76 h | 363 ng·h/mL | 45 mL/min/kg | 2.1 h | 6.89 L/kg |
